Measured values published in US4289762A, “10-(1,2-Propadienyl) steroids as irreversible aromatase inhibitors” (Merrell Dow Pharmaceuticals Inc., priority 1980, dated 1981).
Where “and” joins values, the source holds several entries; their conditions need not be identical. Equal values may be shown once. Entries after “also recorded” stand apart in the source; their conditions may differ. Read-outs that look alike come from different tables or passages of the source.

What was measured:
Test in all cases: biochemical
aromatase [1] = target: T1, aromatase (Homo sapiens, UniProt P11511); format: human (placenta microsomal fraction); conditions: for Ki: time-dependent assay, Table 2, read-out: Apparent Ki
T1 construct: microsomal fraction isolated from human placenta; from tissue; host or cells: human placenta, microsomal fraction
T1 sequence (P11511 1-503): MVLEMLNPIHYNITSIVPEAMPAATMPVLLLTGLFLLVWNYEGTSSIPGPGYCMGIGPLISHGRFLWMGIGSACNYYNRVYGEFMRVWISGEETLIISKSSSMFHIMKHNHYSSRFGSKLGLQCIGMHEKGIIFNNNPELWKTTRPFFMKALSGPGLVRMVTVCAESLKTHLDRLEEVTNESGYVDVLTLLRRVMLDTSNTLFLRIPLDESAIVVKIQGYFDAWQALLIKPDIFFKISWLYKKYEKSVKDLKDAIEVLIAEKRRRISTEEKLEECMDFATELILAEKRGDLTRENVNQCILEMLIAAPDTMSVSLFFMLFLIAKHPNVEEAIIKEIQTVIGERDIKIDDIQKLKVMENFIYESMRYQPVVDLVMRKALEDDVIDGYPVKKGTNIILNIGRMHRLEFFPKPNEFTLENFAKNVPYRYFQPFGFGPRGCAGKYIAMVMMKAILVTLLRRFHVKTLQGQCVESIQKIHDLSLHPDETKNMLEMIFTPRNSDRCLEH
Description: (§1) In the time-dependent assay, an amount of the enzyme inhibitor in 100 ul of the assay buffer described above which will provide assay concentrations which are approximately one and ten times the IC50 values are added to 35 ml centrifuge tubes containing 600 ul of the NADPH generating system described above. […] These preparations are mixed using a vortex mixer and incubated for 0, 10, 20 or 40 minutes at 25° C. […] Following vortexing, the enzyme incubation is continued for 10 minutes before being terminated by the addition of chloroform. The amount of radioactivity in the aqueous fraction is determined by scintillation procedures. […] Therefore, the percent enzyme inhibition is expressed as a percentage of the 100 percent enzyme activity value.
Compounds which show time-dependent inhibition are then assayed to establish the inhibition constant, Ki, which is the apparent dissociation constant for the enzyme-inhibitor complex. This determination requires measurements at initial velocities of enzyme reaction. […] The enzyme half-life (t1/2) at these different inhibitor concentrations ([In]) is used to determine the Ki by the linear regression equation of the t1/2 vs. 1/[In]. The Ki is equivalent to the inhibitor concentration when t1/2 is equal to zero.

aromatase [2] = target: T1, aromatase; format: biochemical, human (placenta microsomal fraction)
Description: Assay buffer contains 100 mM KCl, 10 mM KH2 PO4, 10 mM dithiothreitol and 1 mM EDTA at pH 8.0. […] These preparations are mixed using a vortex mixer and incubated for 30 minutes at 37° C. with a 95% O2 :5% CO2 gas phase in a Dubinoff shaking incubator.
The enzymatic reaction is terminated by the addition of 10 ml of CHCl3. After vortexing for 20 sec., aqueous/organic emulsions are dispersed and phase separation achieved following centrifugation at 600×g for 10 min. Duplicate 500 ul samples of the upper aqueous phase of each incubation sample are added to 10×75 mm culture tubes. To these tubes, 500 ul of cold 0.25% dextran-coated charcoal suspension is added, vortexed, incubated for 15 min. at 4° C., then centrifuged at 2600×g in a refrigerated centrifuge (4° C.). The supernatant fraction is decanted into a 20 ml scintillation vial and 15 ml of aqueous scintillation cocktail is added. The radioactivity of ^3 H2 O resulting from liberated 1 and 2 tritium atoms during the enzymatic reaction is determined by counting for 10 min. in a liquid scintillation counter. This assay procedure is adapted from the procedures of Reed et al, J. Biol. Chem., 251, 1625 (1976), and Thompson et al, J. Biol. Chem., 249, 5364 and 5374 (1974).

aromatase [3] = target: T1, aromatase; format: human (placenta microsomal fraction); conditions: for inhibition at 0.25 µM: inhibitor 0.25 uM; for inhibition at 0.25 µM / inhibition at 2.5 µM / inhibition at 0.1 µM / inhibition at 1 µM: read-out: Percent Inhibition; for inhibition at 2.5 µM: inhibitor 2.5 uM; for inhibition at 0.1 µM: inhibitor 0.1 uM; for inhibition at 1 µM: inhibitor 1.0 uM
Description: In this assay, the inhibitor is preincubated with the enzyme prior to assaying for enzyme activity in the presence of high substrate levels.
as §1

## C[C@]12C=CC(=O)C=C1CC[C@@H]1[C@@H]2CC[C@]2(C)OC(=O)CC[C@@H]12 [1-dehydrotestololactone, 1,2,3,4,4a,4b,7,9,10,10a-Decahydra-2-hydroxy-2,4b-dimethyl-7oxo-l-phenanthrene-propionic acid O-lactone]
Aromatase [1]
  Ki: 7900 nM
Aromatase [2]
  IC50: 2500 nM
Aromatase [3]; preincubation 0 minutes
  inhibition at 0.25 µM: 0%
  inhibition at 2.5 µM: 24.7%
Aromatase [3]; preincubation 20 minutes
  inhibition at 0.25 µM: 3.6%
  inhibition at 2.5 µM: 82.7%
Aromatase [3]; preincubation 40 minutes
  inhibition at 0.25 µM: 36.1%
  inhibition at 2.5 µM: 96.9%

## C=C=C[C@]12CCC(=O)C=C1CC[C@@H]1[C@@H]2CC[C@]2(C)C(=O)CC[C@@H]12 [10-(1,2-propadienyl)estr-4-ene-3,17-dione]
Aromatase [1]
  Affinity for the enzyme site relative to natural substrate testosterone (times greater): three times greater
  Binding to the enzyme: irreversibly bound to the enzyme
  Factor by which enzyme affinity exceeds that of 1-dehydrotestololactone: 58.1
  Factor by which enzyme affinity exceeds that of aminoglutethimide: 1,491.2
  Factor by which enzyme affinity exceeds that of androsta-1,4,6-triene-3,17-dione: 8.1
Aromatase [2]
  Enzyme affinity compared with other known inhibitors: greater enzyme affinity than other known inhibitors
Aromatase [3]
  Activity compared with known therapeutic agents / known aromatase inhibitors: superior activity to known therapeutic agents; also recorded: superior to known aromatase inhibitors
  Time-dependent inhibition of aromatase: significant time-dependent inhibition of aromatase
Aromatase [3]; 1 µM
  Percent Inhibition: 50.2 and 69.2 and 84.0

## C[C@]12C=CC(=O)C=C1C=C[C@@H]1[C@@H]2CC[C@]2(C)C(=O)CC[C@@H]12 [Androsta-1,4,6-triene-3,17-dione]
Aromatase [1]
  Ki: 110 nM
Aromatase [2]
  IC50: 100 nM
Aromatase [3]; preincubation 0 minutes
  inhibition at 0.1 µM: 20.5%
  inhibition at 1 µM: 88.8%
Aromatase [3]; preincubation 20 minutes
  inhibition at 0.1 µM: 45.5%
  inhibition at 1 µM: 92.8%
Aromatase [3]; preincubation 40 minutes
  inhibition at 0.1 µM: 54.8%
  inhibition at 1 µM: 95.2%
